Laboratory results reported in patent publication US20260008746A1, “CATIONIC LIPID COMPOUND WITH HIGH EFFICIENCY, LOW TOXICITY AND STABLE EXPRESSION, AND COMPOSITION COMPRISNG SAME” (HANGZHOU TIANLONG PHARMACEUTICAL CO., LTD, priority 2023, published 2026).
Values joined by “and” are separate entries in the source; they are usually repeats but may differ in a detail not shown here. Equal entries are not always repeated.

Columns and labels:
293T cells [1] = test: Cell survival rate determination (CCK-8); assay type: cell-based; conditions: for Cell survival rate (%): LNP formulation containing 1.5 μg Fluc-mRNA, 24 hours, CCK-8, absorbance at 450 nm; for cell survival rate lower than that of YK-101: cell survival rate of YK-101 minus that of named substance; for cell survival rate lower than that of YK-107: cell survival rate of YK-107 minus that of named substance; for cell survival rate lower than that of YK-108: cell survival rate of YK-108 minus that of named substance
Protocol: (§1) Cell recovery and passage: 293T cells were recovered, cultured in a culture dish, and passaged to the required number of cells.
(§2) Seeding plate: The cells in the culture dish were digested and counted. Cells were spread in a 96-well plate at 10,000 cells per well and in a 12-well plate at 150,000 cells per well. Cells were cultured overnight until the cells adhered to the wall.
An LNP formulation containing 1.5 μg of Fluc-mRNA (the cater component of the LNP formulation were cationic lipid, neutral lipid, structured lipid and polymer-conjugated lipid with a molar ratio of 49: 10: 39.5: 1.5, wherein the cationic lipid was listed in Table 1) and the formulation of Lipofectamine 3000 were added to the cell culture medium of a 96-well plate, and further cultivated for 24 hours. 10 μL of CCK-8 solution was then added to each well, and the culture plate was incubated in an incubator for 1 hour. The absorbance at 450 nm was measured by a microplate reader.

BALB/C mice = test: In vivo imaging of Fluc-mRNA expression in mice delivered by LNP formulations; conditions: for average radiation intensity, 6 h / average radiation intensity, 24 h / average radiation intensity, 48 h / average radiation intensity, 7 d: LNP containing 10 pg Fluc-mRNA, intramuscular, female BALB/C mice
Protocol: The LNP formulation containing […] Fluc-mRNA was injected intramuscularly into female BALB/C mice aged 4-6 weeks old and weighed 17-19 g, and the mice were intraperitoneally injected with fluorescent imaging substrate at specific time points after administration (6h, 24 h, 48h and 7d), where the mice were allowed to move freely for 5 minutes, and then the average radiation intensity (corresponding to fluorescence expression intensity) of the protein expression of the mRNA carried by the LNP in the mice was detected by the IVIS Spectrum small animal in vivo imaging device. The test results are shown in Tables 11 to 14 and FIGS. 12 to 14.

293T cells [2] = test: Fluorescent detection of Fluc-mRNA (cell transfection efficiency of LNP formulations); assay type: cell-based; conditions: for Relative light unit (RLU): LNP formulation containing 0.3 μg Fluc-mRNA, 96-well plate, 24 hours; for Multiples (YK-101): RLU of YK-101 / RLU of named substance; for Multiples (YK-107): RLU of YK-107 / RLU of named substance; for Multiples (YK-108): RLU of YK-108 / RLU of named substance; for Ratio relative to SM-102: RLU of named substance / RLU of SM-102; for fluorescence absorption value, times that of HHMA: RLU of named substance / RLU of HHMA; for fluorescence absorption value, times that of Lipofectamine 3000: RLU of named substance / RLU of Lipofectamine 3000; for Fluc-mRNA expression signal intensity, times that of compound 21: RLU of named substance / RLU of compound 21; for fluorescence absorption value, times that of compound 23: RLU of named substance / RLU of compound 23
Protocol: as §1, §2
Cell recovery and passage: the method was the same as in Example 3.
Seeding plate: the method was the same as in Example 3.
An LNP formulation containing 0.3 μg of Fluc-mRNA (the carrier components of the LNP formulation were cationic lipid, neutral lipid, structured lipid and polymer-conjugated lipid with a molar ratio of 49:10:39.5:1.5, wherein the cationic lipid was listed in Table 1) was added to the cell culture medium of a 96-well plate, and further incubated for 24 hours. The corresponding reagent was added according to the instructions of the Gaussia Luciferase Assay Kit, and the fluorescence expression intensity of each well was detected by an IVIS fluorescence detection system. This test verified the transfection efficiencies of LNP formulations in cells, see Tables 3-6 for specific test results.

Compound	Cell survival rate (%) (293T cells [1])	Relative light unit (RLU) (293T cells [2])	Multiples (YK-101) (293T cells [2])	Multiples (YK-107) (293T cells [2])	Multiples (YK-108) (293T cells [2])	Ratio relative to SM-102 (293T cells [2])	cell survival rate lower than that of YK-101 (293T cells [1])	cell survival rate lower than that of YK-107 (293T cells [1])	cell survival rate lower than that of YK-108 (293T cells [1])	fluorescence absorption value, times that of HHMA (293T cells [2])	fluorescence absorption value, times that of Lipofectamine 3000 (293T cells [2])	Fluc-mRNA expression signal intensity, times that of compound 21 (293T cells [2])	fluorescence absorption value, times that of compound 23 (293T cells [2])	also measured
CCCCCCCCCCOC(=O)CCCN(CCO)CCCCCC(=O)OCCC(CCCCCC)CCCCCC [YK-101, 3-hexylnonyl-6-(4-(decyloxy)-4-oxobutyl)((2-hydroxyethyl)amino)hexanoate]	90.12%	20335193 RLU	1.00	1.10	1.21	13.25								average radiation intensity, 6 h (BALB/C mice; 6 h): 1496240; average radiation intensity, 24 h (BALB/C mice; 24 h): 1056210; average radiation intensity, 48 h (BALB/C mice; 48 h): 185905; average radiation intensity, 7 d (BALB/C mice; 7 d): 12165
CCCCCCCCCCOC(=O)CCCN(CCCO)CCCCCC(=O)OCCC(CCCCCC)CCCCCC [YK-102, 3-hexylnonyl-6-(4-(decyloxy)-4-oxobutyl)((3-hydroxypropyl)amino)hexanoate]	51.82%	1464032 RLU	13.89		16.84	0.95	38.30%	38.63%	38.04%					average radiation intensity of YK-101, times that of named substance (BALB/C mice; 6 h): 2.3 times; average radiation intensity of YK-107, times that of named substance (BALB/C mice; 6 h): 2.5 times; average radiation intensity of YK-108, times that of named substance (BALB/C mice; 6 h): 3.1 times; average radiation intensity of YK-101, times that of named substance (BALB/C mice; 24 h): 10.5 times; average radiation intensity of YK-107, times that of named substance (BALB/C mice; 24 h): 13.0 times; average radiation intensity of YK-108, times that of named substance (BALB/C mice; 24 h): 14.0 times; average radiation intensity of YK-101, times that of named substance (BALB/C mice; 48 h): 6.1 times; average radiation intensity of YK-107, times that of named substance (BALB/C mice; 48 h): 7.4 times; average radiation intensity of YK-108, times that of named substance (BALB/C mice; 48 h): 7.6 times; average radiation intensity of YK-101, times that of named substance (BALB/C mice; 7 d): 1.9 times; average radiation intensity of YK-107, times that of named substance (BALB/C mice; 7 d): 2.1 times; average radiation intensity of YK-108, times that of named substance (BALB/C mice; 7 d): 2.2 times; average radiation intensity, 6 h (BALB/C mice; 6 h): 652680; average radiation intensity, 24 h (BALB/C mice; 24 h): 100422; average radiation intensity, 48 h (BALB/C mice; 48 h): 30507; average radiation intensity, 7 d (BALB/C mice; 7 d): 6477
CCCCCCC(CCCCCC)CCOC(=O)CCCCCN(CCO)CCCCCC(=O)OCCCSSCCCCC [YK-110]	42.85%	271783 RLU	74.82	82.28	90.74	0.18	40%	40%	40%	0.13 times	0.25 times	0.20 times	0.21 times	
CCCCCCC(CCCCCC)CCOC(=O)CCCCCN(CCO)CCCCCC(=O)OCCSCCCC [YK-112, 3-hexylnonyl-6-(6-(2-(butylthio)ethoxy)-6-oxohexyl)((2-hydroxyethyl)amino)hexanoate]	9.82%	2012 RLU				0.0013	80.30% and 80%	80.63% and 80%	80.04% and 80%	0.0010 times	0.0019 times	0.0014 times	0.0016 times	
CCCCCCCCC(CCCCCCCC)COC(=O)CCCCCN(CCO)CCCCCC(=O)OCCSCCCC [YK-113, 2-octyldecyl 6-(6-(2-(butylthio)ethoxy)-6-oxohexyl)((2-hydroxyethyl)amino)hexanoate]	43.05%	151694 RLU	134.05		162.57	0.10	47.07% and 40%	47.40% and 40%	46.81% and 40%	0.07 times	0.14 times	0.11 times	0.12 times	cell transfection activity, times that of YK-112 (293T cells [2]): up to 75 times
CCCCCCCCCCOC(=O)CCCN(CCCCCC(=O)OCCC(CCCCCC)CCCCCC)C[C@H](O)CO [YK-116, 3-hexylnonyl 6-(4-(decyloxy)-4-oxobutyl)(((S)-2,3-dihydroxypropyl)amino)hexanoate]	67.96%	1321284 RLU	15.39	16.92	18.66	0.86	22.16%	22.49%	21.90%	0.65 times	1.23 times	0.95 times	1.02 times	
CCCCCCCCCCOC(=O)CCCN(CCCCCC(=O)OCCC(CCCCCC)CCCCCC)C[C@H](C)O [YK-117, 3-hexylnonyl 6-(4-(decyloxy)-4-oxobutyl)(((S)2-hydroxypropyl)amino)hexanoate]	57.93%	695716 RLU	29.23	32.14	35.45	0.45	32.19%	32.52%	31.93%	0.34 times	0.65 times	0.50 times	0.54 times	cell transfection efficiency, times that of YK-118 (293T cells [2]): 33 times; cell transfection efficiency, times that of YK-119 (293T cells [2]): 80 times
CCCCCCCCCCOC(=O)CCCN(CCCCCC(=O)OCCC(CCCCCC)CCCCCC)CCC(C)O (stereo not drawn) [YK-118, 3-hexylnonyl 6-(4-(decyloxy)-4-oxobutyl)((3-hydroxybutyl)amino)hexanoate]	63.33%	21310 RLU		1049.33	1157.23	0.0139	26.79%	27.12%	26.53%	0.0104 times	0.0199 times	0.0153 times	0.0165 times	
CCCCCCCCCCOC(=O)CCCN(CCCCCC(=O)OCCC(CCCCCC)CCCCCC)CCC(C)(C)O [YK-119, 3-hexylnonyl 6-(4-(decyloxy)-4-oxobutyl)((3-hydroxy-3-methylbutyl)amino)hexanoate]	80.27%	8557 RLU				0.0056	9.85%	10.18%	9.59%	0.0042 times	0.0080 times	0.0062 times	0.0066 times	
